Solubility data for two compounds are collected here from patent publication US20040052845A1, “Hydrogel-driven drug dosage form” (priority 2003, published 2004).

Counter-ions that a name gives are not always drawn.

The nature of this series: Aqueous solubility of the drug.

Regarding `CN[C@H]1CC[C@@H](c2ccc(Cl)c(Cl)c2)c2ccccc21` [Drug 2, sertraline HCl], for the setting “at pH 7”, the solubility is 0.2 mg/mL. As for “4-[3-[4-(2-methylimidazol-1-yl) phenylthio] phenyl]-3,4,5,6-tetrahydro-2H-pyran-4-carboxamide hemifumarate [Drug 3]”, under “at pH 4”, the solubility was 3.7 mgA/mL.
